Measurements published in US20190100549A1, “FLAVONOIDE-TYPE COMPOUNDS BEARING AN O-RHAMNOSYL RESIDUE” (Universitaet Hamburg, priority 2016, published 2019).
Several values for one entry are separate records, joined by “and”; a condition that tells them apart may be missing. Equal entries are not always repeated.

How the values were obtained:
[1] = test system: IL-8; test: IL-8 release in stimulated NHEK (ELISA); format: cell-based, human; conditions: for inhibition at 100 µM: Homo sapiens, NHEK; for Cytokine [pg/mL] IL-8 Mean / IL-8 % stim. control / Cytokine [pg/mL] IL-8: 100 μM; for Cytokine [pg/mL] IL-8: single values
Experimental: NHEK were pre-incubated for 24 h with the test compounds. The medium was replaced with the NHEK culture medium containing the inflammatory inducers (PMA or Poly I:C) and incubated for another 24 hours. Positive and negative controls ran in parallel. At the endpoint the culture supernatants were quantified of secreted IL-8, PGE2 and TNF-α by means of ELISA.

[2] = test system: lipid peroxides (C11-fluor) in NHEK cells; test: Protection against UV-induced lipid peroxide in NHEK (C11-fluor probe, flow cytometry); format: cell-based, human; conditions: 100 μM, 240 mJ/cm^2 UVB (3538 mJ/cm^2 UVA)
Experimental: (§1) Pre-incubated NHEK were incubated with the test compound for 24 h. Then the specific fluorescence probe for the measurement of hydrogen peroxide (DHR) or lipid peroxides (C11-fluor) was added and incubated for 45 min. Irradiation occurred with in H2O2 determination UVB at 180 mJ/cm^2 (+UVA at 2839 mJ/cm^2) or UVB at 240 mJ/cm^2 (+UVA at 3538 mJ/cm^2) in lipid peroxide, respectively, using a SOL500 Sun Simulator lamp. After irradiation the cells were post-incubated for 30 min before flow-cytometry analysis.

[3] = test system: STAT3; test: STAT3 activity in HeLa-STAT3-luc cells stimulated with IFN-γ (luciferase); format: cell-based; conditions: +IFNγ 25 U/ml; for RLU 1 / RLU 2 / RLU 3: HeLa-STAT3-luc cells; for RLU 1: replicate well 1; for RLU 2: replicate well 2; for RLU 3: replicate well 3; for RLU specific: mean minus control; for Mean: mean of triplicate wells; for % Activation: IFNγ alone = 100% activation
Experimental: HeLa-STAT3-luc cells were stably transfected with the plasmid 4xM67 pTATA TK-Luc. Cells (20×10^3 cells/ml) were seeded 96-well plate the day before the assay. Then the cells were treated with the test substances for 15 min and then stimulated with IFN-γ 25 IU/ml. After 6 h, the cells were washed twice with PBS and lysed in 50 μl lysis buffer containing 25 mM Tris-phosphate (pH 7.8), 8 mM MgCl2, 1 mM DTT, 1% Triton X-100, and 7% glycerol during 15 min at RT in a horizontal shaker. Luciferase activity was measured using GloMax 96 microplate luminometer (Promega) following the instructions of the luciferase assay kit (Promega, Madison, Wis., USA). […] The experiments for each concentration of the test items were done in triplicate wells.

[4] = test system: fibronectin; test: Fibronectin synthesis in NHDF (ELISA); format: cell-based, human; conditions: 100 μM, 72 hours
Experimental: (§2) Tests were performed with normal human dermal fibroblast cultures at the 8th passage. Cells were grown in DMEM supplemented with glutamine at 2 mM, penicillin at 50 U/mL and streptomycin (50 μg/mL) and 10% of fetal calf serum (FCS) at 37° C. in a 5% CO2 atmosphere.
(§3) Fibroblasts were cultured for 24 hours before the cells were incubated with the test compounds for further 72 hours. After the incubation the culture supernatants were collected in order to measure the released quantities of procollagen I, VEGF, and fibronectin by means of ELISA. Reference test compounds were vitamin C (procollagen I), PMA (VEGF), and TGF-β (fibronectin).

[5] = test system: procollagen I; test: Procollagen I synthesis in NHDF (ELISA); format: cell-based, human; conditions: 100 μM, 72 hours
Experimental: as §2, §3

[6] = test system: VEGF; test: VEGF release in NHDF (ELISA); format: cell-based, human; conditions: 100 μM, 72 hours
Experimental: as §2, §3

[7] = test system: matrix metallopeptidase 1 (MMP-1); test: MMP-1 release in UVA-irradiated NHDF (ELISA); format: cell-based, human; conditions: 100 μM, 15 J/cm^2 UVA
Experimental: as §2
Human fibroblasts were cultured for 24 hours before the cells were pre-incubated with the test or reference compounds (dexamethasone) for another 24 hours. The medium was replaced by the irradiation medium (EBSS, CaCl2 0.264 g/L, MgClSO4 0.2 g/L) containing the test compounds) and cells were irradiated with UVA (15 J/cm^2). The irradiation medium was replaced by culture medium including again the test compounds incubated for 48 hours. After incubation the quantity of matrix metallopeptidase 1 (MMP-1) in the culture supernatant was measured using an ELISA kit.

[8] = test system: HaCaT cells; test: Glucose uptake (2-NBDG) in HaCaT keratinocytes; format: cell-based; parameters: key to Measure 1 / Measure 2 / Measure 3 / Mean: total green object integrated intensity, GCU×μm2×Well; conditions: +2NBDG 50 μM, 24 h; for Measure 1 / Measure 2 / Measure 3: HaCaT cells, fluorescence; for RFU specific: mean minus control; for Mean: mean of triplicate measurements; for % Glucose uptake: Rosiglitazone 80 μM = 100%
Experimental: HaCaT cells (5×10^4) were seeded in 96-well black plates and incubated for 24 h. Then, medium was removed and the cells cultivated in OptiMEM, labeled with 50 μM 2-NBDG (2-[N-(7-nitrobenz-2-oxa-1,3-diazol-4-yl) amino]-2-deoxy-D-glucose and treated with the test substances or the positive control, Rosiglitazone, for 24 h. Medium was removed and the wells were carefully washed with PBS and incubated in PBS (100l/well). Finally the fluorescence was measured using the Incucyte FLR software, the data were analyzed by the total green object integrated intensity (GCU×μm2×Well) of the imaging system IncuCyte HD (Essen BioScience). The fluorescence of Rosiglitazone is taken as 100% of glucose uptake, and the glucose uptake was calculated as (% Glucose uptake)=100(T−B)/(R−B), where T (treated) is the fluorescence of test substance-treated cells, B (Basal) is the fluorescence of 2-NBDG cells and […] is the fluorescence of cells treated with Rosiglitazone.

[9] = test system: hydrogen peroxide (DHR) in NHEK cells; test: Protection against UV-induced H2O2 stress in NHEK (DHR probe, flow cytometry); format: cell-based, human
Experimental: as §1

[10] = 100 μM, 180 mJ/cm^2 UVB (2839 mJ/cm^2 UVA)

Question: Which inhibition at 100 µM ([1]; PMA) does the source give for COc1ccc(C2CC(=O)c3c(cc(O)cc3O[C@@H]3O[C@@H](C)[C@H](O)[C@@H](O)[C@H]3O)O2)cc1O (stereo partly drawn) [HESR1, Hesperetin-5-O-α-L-rhamnoside] here?
Answer: Its inhibition at 100 µM is 34%.

Question: And the inhibition at 100 µM ([1]; poly(I:C))?
Answer: The inhibition at 100 µM was 24%.

Question: What about the “Cytokine [pg/mL] IL-8 Mean” value ([1]; PMA) of the same compound?
Answer: The value was 2843 pg/mL.

Question: What about the “IL-8 % stim. control” value ([1]; PMA) of the same compound?
Answer: Its value is 98%.

Question: What about the “Cytokine [pg/mL] IL-8” value ([1]; PMA) of the same compound?
Answer: The value was 3242 pg/mL and 2445 pg/mL.

Question: And the “Cytokine [pg/mL] IL-8 Mean” value ([1]; poly(I:C))?
Answer: The value was 2793 pg/mL.

Question: And the “IL-8 % stim. control” value ([1]; poly(I:C))?
Answer: Its value is 76%.

Question: What about the “Cytokine [pg/mL] IL-8” value ([1]; poly(I:C)) of the same compound?
Answer: The value was 2617 pg/mL and 2970 pg/mL.

Question: What about the “C11-fluor(AU) Mean (1/GMFI)” value [2] of the same compound?
Answer: The value was 6.4E−04 AU.

Question: And the “lipid peroxide % Irradiated control” value [2]?
Answer: Its value is 99%.

Question: And the “lipid peroxide Protection %” value [2]?
Answer: Its value is 1%.

Question: What about the “C11-fluor(AU) 1/GMFI” value ([2]; single values) of the same compound?
Answer: Its value is 6.0E−04 AU and 6.9E−04 AU.

Question: What about the “C11-fluor(AU) GMFI” value ([2]; single values) of the same compound?
Answer: The value was 1671 AU and 1455 AU.

Question: What about the “RLU 1” value ([3]; 25 μM test substance) of the same compound?
Answer: The value was 13396 RLU.

Question: What about the “RLU 2” value ([3]; 25 μM test substance) of the same compound?
Answer: The value was 12243 RLU.

Question: And the “RLU 3” value ([3]; 25 μM test substance)?
Answer: The value was 12859 RLU.

Question: What about the RLU specific ([3]; 25 μM test substance) of the same compound?
Answer: Its RLU specific is 10825 RLU.

Question: What about the Mean ([3]; 25 μM test substance) of the same compound?
Answer: The Mean was 12833 RLU.

Question: And the “% Activation” value ([3]; 25 μM test substance)?
Answer: Its value is 86.48%.

Question: What about the “RLU 1” value ([3]; 50 μM test substance) of the same compound?
Answer: Its value is 14303 RLU.

Question: What about the “RLU 2” value ([3]; 50 μM test substance) of the same compound?
Answer: The value was 13124 RLU.

Question: What about the “RLU 3” value ([3]; 50 μM test substance) of the same compound?
Answer: Its value is 11985 RLU.

Question: And the RLU specific ([3]; 50 μM test substance)?
Answer: The RLU specific was 11130 RLU.

Question: What about the Mean ([3]; 50 μM test substance) of the same compound?
Answer: Its Mean is 13137 RLU.

Question: And the “% Activation” value ([3]; 50 μM test substance)?
Answer: The value was 88.92%.

Question: What about the “Fibronectin % Control” value [4] of the same compound?
Answer: The value was 96%.

Question: What about the “Fibronectin % Stimulation” value [4] of the same compound?
Answer: Its value is −4%.

Question: What about the “Fibronectin Mean” value [4] of the same compound?
Answer: The value was 5853 ng/mL.

Question: What about the “Fibronectin” value ([4]; single values) of the same compound?
Answer: Its value is 5843 ng/mL and 5864 ng/mL.

Question: What about the “Procollagen I % Control” value [5] of the same compound?
Answer: Its value is 118%.

Question: And the “Procollagen I Mean” value [5]?
Answer: Its value is 1968 ng/mL.

Question: And the “Procollagen I” value ([5]; single values)?
Answer: Its value is 1929 ng/mL and 2007 ng/mL.

Question: What about the “Mean VEGF” value [6] of the same compound?
Answer: Its value is 73 pg/mL.

Question: What about the “VEGF % Control” value [6] of the same compound?
Answer: The value was 101%.

Question: What about the “VEGF % Stimulation” value [6] of the same compound?
Answer: Its value is 1%.

Question: And the “VEGF” value ([6]; single values)?
Answer: Its value is 70 pg/mL and 76 pg/mL.

Question: And the “MMP-1 % Irradiated control” value [7]?
Answer: The value was 116%.

Question: And the “MMP-1 % Protection” value [7]?
Answer: Its value is −25%.

Question: What about the “Mean MMP-1” value [7] of the same compound?
Answer: Its value is 82.2 ng/mL.

Question: And the “MMP-1” value ([7]; single values)?
Answer: Its value is 87.0 ng/mL and 77.4 ng/mL.

Question: What about the “Measure 1” value ([8]; 25 μM test substance) of the same compound?
Answer: Its value is 756943.

Question: And the “Measure 2” value ([8]; 25 μM test substance)?
Answer: The value was 549324.

Question: What about the “Measure 3” value ([8]; 25 μM test substance) of the same compound?
Answer: Its value is 384251.

Question: What about the RFU specific ([8]; 25 μM test substance) of the same compound?
Answer: The RFU specific was 557192 RFU.

Question: What about the Mean ([8]; 25 μM test substance) of the same compound?
Answer: The Mean was 563506.

Question: What about the “% Glucose uptake” value ([8]; 25 μM test substance) of the same compound?
Answer: Its value is 64.1%.

Question: What about the “Measure 1” value ([8]; 50 μM test substance) of the same compound?
Answer: Its value is 501977.

Question: And the “Measure 2” value ([8]; 50 μM test substance)?
Answer: Its value is 642949.

Question: And the “Measure 3” value ([8]; 50 μM test substance)?
Answer: The value was 529620.

Question: And the RFU specific ([8]; 50 μM test substance)?
Answer: The RFU specific was 551868 RFU.

Question: What about the Mean ([8]; 50 μM test substance) of the same compound?
Answer: Its Mean is 558182.

Question: What about the “% Glucose uptake” value ([8]; 50 μM test substance) of the same compound?
Answer: Its value is 63.5%.

Question: And the “anti-oxidative function on mitochondrially produced hydrogen peroxids species (in words)” value [9]?
Answer: Its value is “anti-oxidative function”.

Question: And the “H2O2 % irradiated control” value [9, 10]?
Answer: Its value is 62%.

Question: What about the “H2O2 (AU) Mean” value [9, 10] of the same compound?
Answer: Its value is 1152 AU.

Question: And the “H2O2 Protection %” value [9, 10]?
Answer: The value was 45%.

Question: And the “H2O2 (AU) (DHR GMFI)” value ([9]; 100 μM, 180 mJ/cm^2 UVB (2839 mJ/cm^2 UVA), single values)?
Answer: Its value is 1046 AU and 1258 AU.
